What was measured:
Assay type in all cases: cell-based
[1] = test system: COLO205 (colon); test: Inhibition of cell proliferation, CellTiter-Glo, COLO205; details: Homo sapiens, COLO 205, 72 h
Outline: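 Exponentially growing COLO205 cells in medium with 10% FBS were plated below 2000 cells/well at 37 °C, 5% CO2. Untreated wells served as controls.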

[2] = test system: NCI-H929 (multiple myeloma); test: Inhibition of cell proliferation, CellTiter-Glo, NCI-H929; details: Homo sapiens, 72 h
Method: C. Inhibition of Cell Proliferation
Cell proliferation was measured by either CellTiter-Glo (measures cellular ATP level as a surrogate for total cell number) or by InCell analyzer (counts number of nuclei as a measure of cell number). For CellTiter-Glo assay, exponentially growing cell lines of different tumor origins, cultured in appropriate media containing 10% fetal bovine serum at 37° C. in a 5% CO2 incubator, were plated at low density (less than 2000 cells/well) in 96-well plates. Twenty four hours post-plating, cells were treated with different concentrations of test compounds ranging from 30 uM to 1.5 nM. Several wells were left untreated as a control. Seventy two hours post-treatment, cell numbers were determined using 50-100 ul per well of CellTiter-Glo (Promega #G7573). Plates were incubated at 37° C. for 30 minutes and the chemiluminescent signal was read on the Victor V or Envison 2100 reader. […]

[3] = molecular target: T1, human IGF-1R (NIH-3T3 cells over expressing human IGF-1R) (Homo sapiens, UniProt P08069); test: IGF-1R cellular autophosphorylation (DELFIA); details: IGF-1 stimulated
T1 construct: expressed in transfected cells; host or cells: NIH-3T3 (mouse fibroblasts)
T1 sequence (P08069 31-1367): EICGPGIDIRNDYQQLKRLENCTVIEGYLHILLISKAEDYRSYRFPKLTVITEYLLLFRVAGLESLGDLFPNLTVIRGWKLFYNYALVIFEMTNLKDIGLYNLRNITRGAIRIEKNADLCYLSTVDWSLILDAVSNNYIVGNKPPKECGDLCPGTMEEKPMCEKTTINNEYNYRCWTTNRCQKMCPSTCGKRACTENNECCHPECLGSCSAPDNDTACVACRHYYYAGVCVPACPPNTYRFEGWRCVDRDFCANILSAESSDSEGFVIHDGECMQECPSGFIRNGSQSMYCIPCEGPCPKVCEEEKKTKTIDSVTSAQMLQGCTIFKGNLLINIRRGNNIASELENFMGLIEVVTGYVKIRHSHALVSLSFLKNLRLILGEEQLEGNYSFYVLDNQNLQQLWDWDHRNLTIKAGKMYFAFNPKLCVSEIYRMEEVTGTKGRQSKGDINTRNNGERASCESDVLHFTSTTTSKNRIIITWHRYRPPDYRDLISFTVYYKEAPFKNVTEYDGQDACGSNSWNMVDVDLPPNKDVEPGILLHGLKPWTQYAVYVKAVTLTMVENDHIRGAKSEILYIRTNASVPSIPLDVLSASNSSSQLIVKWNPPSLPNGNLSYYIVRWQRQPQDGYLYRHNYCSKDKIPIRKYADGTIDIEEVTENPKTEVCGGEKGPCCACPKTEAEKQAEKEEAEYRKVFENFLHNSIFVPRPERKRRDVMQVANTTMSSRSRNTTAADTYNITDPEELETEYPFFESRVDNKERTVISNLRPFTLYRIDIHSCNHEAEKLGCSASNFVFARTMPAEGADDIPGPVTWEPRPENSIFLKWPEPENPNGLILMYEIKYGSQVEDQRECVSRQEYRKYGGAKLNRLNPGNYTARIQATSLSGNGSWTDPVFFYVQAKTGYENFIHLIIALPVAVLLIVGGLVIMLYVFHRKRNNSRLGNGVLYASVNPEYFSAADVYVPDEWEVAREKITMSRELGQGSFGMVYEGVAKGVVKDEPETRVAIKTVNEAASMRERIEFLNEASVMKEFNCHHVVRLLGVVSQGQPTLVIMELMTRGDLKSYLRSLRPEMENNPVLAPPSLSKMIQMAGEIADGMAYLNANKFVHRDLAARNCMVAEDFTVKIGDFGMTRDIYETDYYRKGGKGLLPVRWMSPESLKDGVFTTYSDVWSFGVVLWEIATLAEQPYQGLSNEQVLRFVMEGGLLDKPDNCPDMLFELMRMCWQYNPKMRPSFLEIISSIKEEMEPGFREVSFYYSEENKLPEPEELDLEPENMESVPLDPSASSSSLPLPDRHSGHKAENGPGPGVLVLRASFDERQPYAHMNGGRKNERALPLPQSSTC
Outline: (§1)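 Autophosphorylation of IGF-1R or IR is measured in NIH-3T3 lines overexpressing each human receptor after 2 h compound pretreatment and a 15 min ligand challenge (IGF-1 30 ng/mL; insulin 3 ug/mL). Fluorescence is normalised to 100% stimulation.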

[4] = molecular target: T2, IR (NIH-3T3 cells over expressing human IGF-1R or IR) (Homo sapiens, UniProt P06213); test: IR cellular autophosphorylation (DELFIA); details: NIH-3T3 cells over expressing IR, insulin stimulated
T2 construct: expressed in transfected cells; host or cells: NIH-3T3 (mouse fibroblasts)
T2 sequence (P06213 28-1382): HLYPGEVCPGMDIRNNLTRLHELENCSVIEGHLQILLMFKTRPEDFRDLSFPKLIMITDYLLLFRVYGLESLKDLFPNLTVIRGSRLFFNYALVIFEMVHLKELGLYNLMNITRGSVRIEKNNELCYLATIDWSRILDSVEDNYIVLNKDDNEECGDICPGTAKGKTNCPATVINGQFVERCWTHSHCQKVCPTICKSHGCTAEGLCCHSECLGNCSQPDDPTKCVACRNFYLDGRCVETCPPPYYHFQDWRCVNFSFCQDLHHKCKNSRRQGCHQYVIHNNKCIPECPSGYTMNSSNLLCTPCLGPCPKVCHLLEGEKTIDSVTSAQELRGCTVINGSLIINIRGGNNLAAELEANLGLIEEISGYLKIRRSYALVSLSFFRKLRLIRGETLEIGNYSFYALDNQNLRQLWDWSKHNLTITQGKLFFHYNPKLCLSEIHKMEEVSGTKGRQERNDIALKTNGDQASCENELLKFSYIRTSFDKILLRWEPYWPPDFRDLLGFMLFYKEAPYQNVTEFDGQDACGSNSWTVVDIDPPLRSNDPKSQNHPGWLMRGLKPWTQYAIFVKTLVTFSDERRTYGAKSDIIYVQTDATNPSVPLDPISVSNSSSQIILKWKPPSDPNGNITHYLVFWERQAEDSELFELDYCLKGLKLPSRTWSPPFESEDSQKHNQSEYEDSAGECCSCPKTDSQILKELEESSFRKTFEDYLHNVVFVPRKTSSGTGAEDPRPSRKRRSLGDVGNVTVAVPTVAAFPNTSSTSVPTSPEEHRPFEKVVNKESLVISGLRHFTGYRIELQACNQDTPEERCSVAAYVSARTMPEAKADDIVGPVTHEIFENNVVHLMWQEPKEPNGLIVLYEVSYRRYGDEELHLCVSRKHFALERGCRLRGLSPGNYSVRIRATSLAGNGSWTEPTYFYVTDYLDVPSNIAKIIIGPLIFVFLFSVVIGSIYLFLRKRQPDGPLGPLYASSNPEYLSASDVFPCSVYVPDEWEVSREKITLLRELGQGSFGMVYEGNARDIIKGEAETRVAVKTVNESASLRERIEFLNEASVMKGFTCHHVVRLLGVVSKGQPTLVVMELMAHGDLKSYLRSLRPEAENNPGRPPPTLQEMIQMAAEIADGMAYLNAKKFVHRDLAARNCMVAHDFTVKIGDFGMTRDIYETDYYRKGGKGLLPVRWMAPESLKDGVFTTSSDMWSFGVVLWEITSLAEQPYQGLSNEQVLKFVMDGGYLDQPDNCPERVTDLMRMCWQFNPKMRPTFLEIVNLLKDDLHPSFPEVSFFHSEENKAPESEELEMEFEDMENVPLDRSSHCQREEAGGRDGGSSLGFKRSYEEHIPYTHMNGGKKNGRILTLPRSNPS
Outline: as §1

Row | SMILES | IC50 [1] [nM] | IC50 [2] [nM] | IC50 [3] [nM] | IC50 [4] [nM]
1 | CN(C)CCOc1cccc(Nc2nccc(-c3c(-c4cccc(C(=O)Nc5c(F)cc(F)cc5F)c4)nc4ccccn34)n2)c1 [Example 12, 3-(3-{2-[(3-{[2-(dimethylamino)ethyl]oxy}phenyl)amino]-4-pyrimidinyl}imidazo[1,2-a]pyridin-2-yl)-N-(2,4,6-trifluorophenyl)benzamide] | 250 to 1000 | < 250 | 100 to 500 | –
2 | COc1cc(N2CCC(N3CCN(CCS(C)(=O)=O)CC3)CC2)c(C)cc1Nc1nccc(-c2c(-c3cccc(C(=O)Nc4c(F)cccc4F)c3)nc3ccccn23)n1 [Example 115, N-(2,6-difluorophenyl)-3-[3-(2-{[5-methyl-2-(methyloxy)-4-(4-{4-[2-(methylsulfonyl)ethyl]-1-piperazinyl}-1-piperidinyl)phenyl]amino]-4-pyrimidinyl)imidazo[1,2-a]pyridin-2-yl]benzamide] | 250 to 1000 | < 250 | – | –
3 | COc1cc(C2CCN(CCF)CC2)ccc1Nc1nccc(-c2c(-c3ccc(OC)c(C(=O)Nc4c(F)cccc4F)c3)nc3ccccn23)n1 [Example 179, N-(2,6-difluorophenyl)-5-[3-(2-{[4-[1-(2-fluoroethyl)-4-piperidinyl}-2-(methyloxy)phenyl]-amino}-4-pyrimidinyl)imidazo[1,2-a]pyridin-2-yl]-2-(methyloxy)benzamide] | 250 to 1000 | – | < 100 | < 100
4 | COc1cc(C2CCN(CCS(C)(=O)=O)CC2)ccc1Nc1nccc(-c2c(-c3ccc(OC)c(C(=O)Nc4c(F)cccc4F)c3)nc3ccccn23)n1 [Example 181, N-(2,6-difluorophenyl)-2-(methyloxy)-5-(3-{2-[(2-(methyloxy)-4-{1-[2-(methylsulfonyl)ethyl]-4-piperidinyl}phenyl)amino]-4-pyrimidinyl}imidazo[1,2-a]pyridin-2-yl)benzamide] | 250 to 1000 | < 250 | – | –
5 | CCOc1ccc(-c2nc3ccccn3c2-c2ccnc(Nc3ccc(C4CCN(CCS(C)(=O)=O)CC4)cc3OC)n2)cc1C(=O)Nc1c(F)cccc1F [Example 182, N-(2,6-difluorophenyl)-2-(ethyloxy)-5-(3-{2-[(2-(methyloxy)-4-{1-[2-(methylsulfonyl)ethyl]-4-piperidinyl}phenyl)amino]-4-pyrimidinyl}imidazo[1,2-a]pyridin-2-yl)benzamide] | < 250 | < 250 | – | –
6 | CCOc1cc(C2CCN(CCS(C)(=O)=O)CC2)ccc1Nc1nccc(-c2c(-c3cccc(C(=O)Nc4c(F)cccc4F)c3)nc3ccccn23)n1 [Example 183, N-(2,6-difluorophenyl)-3-(3-{2-[(2-(ethyloxy)-4-{1-[2-(methylsulfonyl)ethyl]-4-piperidinyl}phenyl)amino]-4-pyrimidinyl}imidazo[1,2-a]pyridin-2-yl)benzamide] | 250 to 1000 | – | < 100 | < 100
7 | CCOc1cc(C2CCN(CCS(C)(=O)=O)CC2)ccc1Nc1nccc(-c2c(-c3ccc(OC)c(C(=O)Nc4c(F)cccc4F)c3)nc3ccccn23)n1 [Example 184, N-(2,6-difluorophenyl)-5-(3-{2-[(2-(ethyloxy)-4-{1-[2-(methylsulfonyl)ethyl]-4-piperidinyl}-phenyl)amino]-4-pyrimidinyl}imidazo[1,2-a]pyridin-2-yl)-2-(methyloxy)benzamide] | < 250 | < 250 | – | –
8 | CCOc1cc(C2CCN(CCS(C)(=O)=O)CC2)ccc1Nc1nccc(-c2c(-c3ccc(OC(C)C)c(C(=O)Nc4c(F)cccc4F)c3)nc3ccccn23)n1 [Example 186, N-(2,6-difluorophenyl)-5-(3-{2-[(2-(ethyloxy)-4-{1-[2-(methylsulfonyl)ethyl]-4-piperidinyl}phenyl)amino]-4-pyrimidinyl}imidazo[1,2-a]pyridin-2-yl)-2-[(1-methylethyl)oxy]benzamide] | < 250 | < 250 | – | –
9 | COc1cc(N2CCC(N3CCCCC3)CC2)ccc1Nc1nccc(-c2c(-c3cccc(C(=O)Nc4c(F)cccc4F)c3)nc3cc(C(F)(F)F)ccn23)n1 [Example 191, 3-[3-(2-{[4-(1,4′-bipiperidin-1′-yl)-2-(methyloxy)phenyl]amino}-4-pyrimidinyl)-7-(trifluoromethyl)imidazo[1,2-a]pyridin-2-yl]-N-(2,6-difluorophenyl)benzamide] | > 1000 | > 1000 | – | –
10 | CCOc1cc(N2CCC(N3CCN(S(C)(=O)=O)CC3)CC2)c(CC)cc1Nc1nccc(-c2c(-c3ccc(OCC)c(C(=O)Nc4c(F)cccc4F)c3)nc3ccccn23)n1 [Example 205, N-(2,6-difluorophenyl)-5-(3-{2-[(5-ethyl-2-(ethyloxy)-4-{4-[4-(methylsulfonyl)-1-piperazinyl]-1-piperidinyl}phenyl)amino]-4-pyrimidinyl}imidazo[1,2-a]pyridin-2-yl)-2-(ethyloxy)benzamide] | < 250 | < 250 | – | –
11 | COc1cc(N2CCC(CCS(C)(=O)=O)CC2)ccc1Nc1nccc(-c2c(-c3ccc(OC)c(C(=O)Nc4c(F)cccc4F)c3)nc3cc(F)ccn23)n1 [Example 216, N-(2,6-difluorophenyl)-5-(7-fluoro-3-{2-[(2-(methyloxy)-4-{4-[2-(methylsulfonyl)ethyl]-1-piperidinyl}phenyl)amino]-4-pyrimidinyl}imidazo[1,2-a]pyridin-2-yl)-2-(methyloxy)benzamide] | 250 to 1000 | < 250 | – | –
12 | CCOc1cc(N2CCC(CCS(C)(=O)=O)CC2)c(C)cc1Nc1nccc(-c2c(-c3ccc(OC)c(C(=O)Nc4c(F)cccc4F)c3)nc3cc(F)ccn23)n1 [Example 218, N-(2,6-difluorophenyl)-5-(3-{2-[(2-(ethyloxy)-5-methyl-4-{4-[2-(methylsulfonyl)ethyl]-1-piperidinyl}phenyl)amino]-4-pyrimidinyl}-7-fluoroimidazo[1,2-a]pyridin-2-yl)-2-(methyloxy)benzamide] | 250 to 1000 | < 250 | – | –
13 | COc1cc(N2CCC(CCS(C)(=O)=O)CC2)c(C)cc1Nc1nccc(-c2c(-c3ccc(OC)c(C(=O)Nc4c(F)cccc4F)c3)nc3cc(F)ccn23)n1 [Example 220, N-(2,6-difluorophenyl)-5-(7-fluoro-3-{2-[(5-methyl-2-(methyloxy)-4-{4-[2-(methylsulfonyl)ethyl]-1-piperidinyl}phenyl)amino]-4-pyrimidinyl}imidazo[1,2-a]pyridin-2-yl)-2-(methyloxy)benzamide] | 250 to 1000 | < 250 | – | –
14 | CCOc1cc(N2CCN(CCS(C)(=O)=O)CC2)c(C)cc1Nc1nccc(-c2c(-c3ccc(OC)c(C(=O)Nc4c(F)cccc4F)c3)nc3ccccn23)n1 [Example 247, N-(2,6-difluorophenyl)-5-(3-{2-[(2-(ethyloxy)-5-methyl-4-[4-[2-(methylsulfonyl)ethyl]-1-piperazinyl}phenyl)amino]-4-pyrimidinyl}imidazo[1,2-a]pyridin-2-yl)-2-(methyloxy)benzamide] | < 250 | < 250 | – | –
15 | CCOc1cc(N2CCN(CCS(C)(=O)=O)CC2)c(C)cc1Nc1nccc(-c2c(-c3ccc(OC(C)C)c(C(=O)Nc4c(F)cccc4F)c3)nc3ccccn23)n1 [Example 249, N-(2,6-difluorophenyl)-5-(3-{2-[(2-(ethyloxy)-5-methyl-4-{4-[2-(methylsulfonyl)ethyl]-1-piperazinyl}phenyl)amino]-4-pyrimidinyl}imidazo[1,2-a]pyridin-2-yl)-2-[(1-methylethyl)oxy]benzamide] | < 250 | < 250 | – | –

Reference: US20100216779A1 (GLAXOSMITHKLINE LLC, priority 2007, published 2010)
